Reference: ChEMBL document CHEMBL5233207, “Medicinal chemistry of the myeloid C-type lectin receptors Mincle, Langerin, and DC-SIGN” (RSC Med Chem, 2021)
Structures can show the parent of a compound that is named as a salt.

What was measured:
[1] = system: Ebolavirus; test: Antiviral activity against envelope pseudotyped Ebola virus in human Jurkat cells expressing DC-SIGN assessed as inhibition of viral infection; type: functional, organism-based
[2] = system: Human immunodeficiency virus 1; test: Antiviral activity against HIV-1 in human CD4+Th cells expressing DC-SIGN assessed as inhibition of viral infection; type: functional, organism-based; conditions: Human immunodeficiency virus 1, CD4+ve Th
[3] = target: C-type lectin domain family 4 member K (Homo sapiens, UniProt Q9UJ71); test: Binding affinity to Langerin (unknown origin) by [19F] R2-filtered NMR assay
[4] = target: T1, C-type lectin domain family 4 member K (Mus musculus, UniProt Q8VBX4); test: Inhibition of mannan binding to mouse Langerin extracellular domain by ELLA assay
T1 sequence (Q8VBX4 whole entry): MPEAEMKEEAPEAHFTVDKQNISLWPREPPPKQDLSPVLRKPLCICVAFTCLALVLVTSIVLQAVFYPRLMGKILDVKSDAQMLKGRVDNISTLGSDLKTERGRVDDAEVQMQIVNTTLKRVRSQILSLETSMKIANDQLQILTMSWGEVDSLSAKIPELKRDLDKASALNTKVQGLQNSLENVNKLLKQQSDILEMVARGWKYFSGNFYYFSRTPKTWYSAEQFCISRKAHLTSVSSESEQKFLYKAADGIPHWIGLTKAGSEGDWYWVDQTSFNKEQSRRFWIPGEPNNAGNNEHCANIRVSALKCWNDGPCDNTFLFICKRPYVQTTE

[5] = target: T1, C-type lectin domain family 4 member K; test: Inhibition of mannan binding to mouse Langerin extracellular domain assessed as apparent dissociation constant by ELLA assay; conditions: read-out: Kd(app)
[6] = target: T2, C-type lectin domain family 4 member M (Homo sapiens) (UniProt Q9H2X3); test: Inhibition of DC-SIGN (unknown origin)- mediated fluorescent probe binding at 0.1 mM relative to control
T2 sequence (whole entry): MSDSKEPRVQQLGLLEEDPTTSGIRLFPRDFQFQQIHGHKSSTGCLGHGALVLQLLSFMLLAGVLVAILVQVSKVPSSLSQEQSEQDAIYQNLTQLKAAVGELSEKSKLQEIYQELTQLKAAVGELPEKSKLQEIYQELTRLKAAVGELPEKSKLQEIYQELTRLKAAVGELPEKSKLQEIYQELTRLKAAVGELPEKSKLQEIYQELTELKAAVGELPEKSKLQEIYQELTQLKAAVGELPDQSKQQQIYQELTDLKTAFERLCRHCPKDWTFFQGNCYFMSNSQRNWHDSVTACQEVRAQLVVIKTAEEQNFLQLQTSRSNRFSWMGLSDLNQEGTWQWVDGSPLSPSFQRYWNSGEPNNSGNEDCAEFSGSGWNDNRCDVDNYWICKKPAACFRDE

[7] = target: T2, C-type lectin domain family 4 member M (Homo sapiens); test: Inhibition of DC-SIGN (unknown origin)- mediated fluorescent probe binding at 1 mM relative to control
[8] = Inhibition of DC-SIGN (unknown origin)/ SARS CoV-2 spike glycoprotein interaction

Chain of C-type lectin domain family 4 member K (Homo sapiens, UniProt Q9UJ71) (Q9UJ71 whole entry, the tested form may be a part): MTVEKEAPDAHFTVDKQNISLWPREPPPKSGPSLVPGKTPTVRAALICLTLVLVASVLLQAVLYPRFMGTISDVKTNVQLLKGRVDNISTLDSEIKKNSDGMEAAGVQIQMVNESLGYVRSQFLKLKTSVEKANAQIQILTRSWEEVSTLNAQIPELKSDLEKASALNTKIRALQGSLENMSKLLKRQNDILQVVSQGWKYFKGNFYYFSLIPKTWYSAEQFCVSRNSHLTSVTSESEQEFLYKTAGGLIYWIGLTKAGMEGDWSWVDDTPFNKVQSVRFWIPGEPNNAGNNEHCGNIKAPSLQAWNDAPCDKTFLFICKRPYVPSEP

In the case of [N-]=[N+]=NCCO[C@H]1C[C@H](C(=O)NCc2ccc(CO)cc2)[C@@H](C(=O)NCc2ccc(CO)cc2)C[C@@H]1O[C@H]1O[C@H](CO)[C@@H](O)[C@H](O)[C@@H]1O, the IC50 ([1]; Orthoebolavirus, Jurkat) is reported as less than 0.06 µM and the IC50 [2] is reported as 0.024 µM.
Work on N[C@H]1C(O)O[C@H](CO)[C@@H](O)[C@@H]1O (stereo partly specified) [GLUCOSAMINE SULFATE] yielded a Ki [3] of 1400 µM.
CC(=O)NCCO[C@@H]1O[C@H](CO)[C@@H](O)[C@H](O)[C@H]1NS(=O)(=O)c1ccc(C)cc1 showed a Ki [3] of 320 µM.
With C#CCO[C@H]1O[C@H](CO)[C@@H](O)[C@H](O)[C@@H]1NC(=O)Cc1nnn[nH]1 the Ki [3] was 7600 µM.
In the case of C#CCO[C@H]1O[C@H](CO)[C@@H](O)[C@H](O)[C@@H]1NC(C)=O, the Ki [3] is reported as 48000 µM.
O=C(NCCc1cn2c(n1)SCC2)c1cnc2sccn2c1=O gave an IC50 [4] of 50 µM and a Kd [5] of 450 µM.
Work on C#CCO[C@H]1O[C@H](CO)[C@@H](O)[C@H](O)[C@@H]1NC(=O)CS(=O)(=O)O yielded a Ki [3] of 1300 µM.
NC(=O)c1ccc(CCCC2Nc3ccc(C(=O)N4CCN(c5ncccn5)CC4)cc3NC2=O)cc1 (stereo unspecified) showed an inhibition [6] of 53% and an inhibition [7] of 77%.
With COC(=O)[C@H]1C[C@H](OCCN)[C@@H](O[C@H]2O[C@H](CO)[C@@H](O)[C@H](O)[C@@H]2O)C[C@@H]1C(=O)OC the IC50 ([1]; jurkat) was less than 0.06 µM and the IC50 [2] was 0.024 µM.
O=C(NCc1ccc(CO)cc1)[C@H]1C[C@H](OCCn2cc(COCCC(CCOCCn3cc(-c4cc(OCCOCCO)c(C#Cc5cc(OCCOCCO)c(C#Cc6cc(OCCOCCO)c(-c7cn(CCOCCC(CCOCc8cn(CCO[C@H]9C[C@H](C(=O)NCc%10ccc(CO)cc%10)[C@@H](C(=O)NCc%10ccc(CO)cc%10)C[C@@H]9O[C@H]9O[C@H](CO)[C@@H](O)[C@H](O)[C@@H]9O)nn8)(CCOCc8cn(CCO[C@H]9C[C@H](C(=O)NCc%10ccc(CO)cc%10)[C@@H](C(=O)NCc%10ccc(CO)cc%10)C[C@@H]9O[C@H]9O[C@H](CO)[C@@H](O)[C@H](O)[C@@H]9O)nn8)CCOCc8cn(CCO[C@H]9C[C@H](C(=O)NCc%10ccc(CO)cc%10)[C@@H](C(=O)NCc%10ccc(CO)cc%10)C[C@@H]9O[C@H]9O[C@H](CO)[C@@H](O)[C@H](O)[C@@H]9O)nn8)nn7)cc6OCCOCCO)cc5OCCOCCO)cc4OCCOCCO)nn3)(CCOCc3cn(CCO[C@H]4C[C@H](C(=O)NCc5ccc(CO)cc5)[C@@H](C(=O)NCc5ccc(CO)cc5)C[C@@H]4O[C@H]4O[C@H](CO)[C@@H](O)[C@H](O)[C@@H]4O)nn3)CCOCc3cn(CCO[C@H]4C[C@H](C(=O)NCc5ccc(CO)cc5)[C@@H](C(=O)NCc5ccc(CO)cc5)C[C@@H]4O[C@H]4O[C@H](CO)[C@@H](O)[C@H](O)[C@@H]4O)nn3)nn2)[C@@H](O[C@H]2O[C@H](CO)[C@@H](O)[C@H](O)[C@@H]2O)C[C@@H]1C(=O)NCc1ccc(CO)cc1 gave an IC50 [8] of 9.6 µM.
NS(=O)(=O)c1ccc(CCCC2Nc3ccc(C(=O)N4CCN(c5ccncc5)CC4)cc3NC2=O)cc1 (stereo unspecified) gave an inhibition [6] of 79% and an inhibition [7] of 92%.
